The Kinase Knowledgebase extract (Sharma et al. 2016)

What follows are compounds tested against EGFR (UniProt P00533) (assay: not given). Settings: not given.
EGFR, sequence (P00533 whole entry, looked up): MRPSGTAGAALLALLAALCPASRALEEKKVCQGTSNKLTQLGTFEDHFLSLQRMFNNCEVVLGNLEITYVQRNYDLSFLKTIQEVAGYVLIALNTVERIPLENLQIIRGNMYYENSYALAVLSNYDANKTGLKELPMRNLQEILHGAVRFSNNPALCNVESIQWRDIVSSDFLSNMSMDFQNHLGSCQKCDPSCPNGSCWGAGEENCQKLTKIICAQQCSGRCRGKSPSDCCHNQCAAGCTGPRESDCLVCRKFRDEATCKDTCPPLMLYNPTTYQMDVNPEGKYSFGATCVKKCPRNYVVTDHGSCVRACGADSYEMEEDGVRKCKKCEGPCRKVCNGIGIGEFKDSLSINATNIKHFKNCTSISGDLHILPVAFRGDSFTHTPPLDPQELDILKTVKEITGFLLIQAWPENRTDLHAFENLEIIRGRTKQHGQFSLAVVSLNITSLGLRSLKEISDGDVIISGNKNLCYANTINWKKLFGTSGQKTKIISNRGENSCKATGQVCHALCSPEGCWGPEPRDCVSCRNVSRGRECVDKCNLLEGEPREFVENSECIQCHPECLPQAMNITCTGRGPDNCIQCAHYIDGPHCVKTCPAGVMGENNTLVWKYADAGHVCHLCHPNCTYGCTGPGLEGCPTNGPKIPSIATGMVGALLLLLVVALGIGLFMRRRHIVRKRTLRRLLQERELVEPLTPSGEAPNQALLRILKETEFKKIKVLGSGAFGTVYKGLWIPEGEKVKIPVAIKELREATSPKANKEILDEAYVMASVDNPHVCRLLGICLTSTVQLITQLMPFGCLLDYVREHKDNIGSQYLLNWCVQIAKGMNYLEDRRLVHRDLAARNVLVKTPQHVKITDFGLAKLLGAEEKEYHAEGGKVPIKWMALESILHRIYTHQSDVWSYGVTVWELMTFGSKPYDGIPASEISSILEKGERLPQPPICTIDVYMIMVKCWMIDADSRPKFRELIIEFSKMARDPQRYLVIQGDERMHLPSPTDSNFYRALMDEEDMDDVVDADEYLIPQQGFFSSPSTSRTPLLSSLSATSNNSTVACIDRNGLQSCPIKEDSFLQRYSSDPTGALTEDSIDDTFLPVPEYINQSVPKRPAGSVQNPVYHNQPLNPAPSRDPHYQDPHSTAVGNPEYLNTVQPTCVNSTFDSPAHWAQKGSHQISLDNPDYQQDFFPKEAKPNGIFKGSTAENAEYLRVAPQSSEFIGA

SMILES	IC50
CN(C)CCCCNc1cc2ncnc(Nc3cccc(Br)c3)c2cn1	38 nM
Nc1cc2ncnc(Nc3cccc(Br)c3)c2cn1	110 nM

These compounds were tested against EGFR (murine) (UniProt P00533) (assay: not given). Settings: nih3t3.
EGFR (murine), sequence (P00533 whole entry, looked up): as above

SMILES	IC50
COc1cc2ncnc(Nc3cccc(C#N)c3)c2cc1OC	200 nM
COc1cc2ncnc(Nc3cccc(C(F)(F)F)c3)c2cc1OC	< 6 nM
Cc1ccc2ncnc(Nc3cccc(C(F)(F)F)c3)c2c1	900 nM

These compounds were tested against PIK3CA (human) (UniProt P42336) (assay: Antiproliferation of NZOV9 Cell Line Using Thymidine Depletion Assay). Settings: not given.
PIK3CA (human), sequence (P42336 whole entry, looked up): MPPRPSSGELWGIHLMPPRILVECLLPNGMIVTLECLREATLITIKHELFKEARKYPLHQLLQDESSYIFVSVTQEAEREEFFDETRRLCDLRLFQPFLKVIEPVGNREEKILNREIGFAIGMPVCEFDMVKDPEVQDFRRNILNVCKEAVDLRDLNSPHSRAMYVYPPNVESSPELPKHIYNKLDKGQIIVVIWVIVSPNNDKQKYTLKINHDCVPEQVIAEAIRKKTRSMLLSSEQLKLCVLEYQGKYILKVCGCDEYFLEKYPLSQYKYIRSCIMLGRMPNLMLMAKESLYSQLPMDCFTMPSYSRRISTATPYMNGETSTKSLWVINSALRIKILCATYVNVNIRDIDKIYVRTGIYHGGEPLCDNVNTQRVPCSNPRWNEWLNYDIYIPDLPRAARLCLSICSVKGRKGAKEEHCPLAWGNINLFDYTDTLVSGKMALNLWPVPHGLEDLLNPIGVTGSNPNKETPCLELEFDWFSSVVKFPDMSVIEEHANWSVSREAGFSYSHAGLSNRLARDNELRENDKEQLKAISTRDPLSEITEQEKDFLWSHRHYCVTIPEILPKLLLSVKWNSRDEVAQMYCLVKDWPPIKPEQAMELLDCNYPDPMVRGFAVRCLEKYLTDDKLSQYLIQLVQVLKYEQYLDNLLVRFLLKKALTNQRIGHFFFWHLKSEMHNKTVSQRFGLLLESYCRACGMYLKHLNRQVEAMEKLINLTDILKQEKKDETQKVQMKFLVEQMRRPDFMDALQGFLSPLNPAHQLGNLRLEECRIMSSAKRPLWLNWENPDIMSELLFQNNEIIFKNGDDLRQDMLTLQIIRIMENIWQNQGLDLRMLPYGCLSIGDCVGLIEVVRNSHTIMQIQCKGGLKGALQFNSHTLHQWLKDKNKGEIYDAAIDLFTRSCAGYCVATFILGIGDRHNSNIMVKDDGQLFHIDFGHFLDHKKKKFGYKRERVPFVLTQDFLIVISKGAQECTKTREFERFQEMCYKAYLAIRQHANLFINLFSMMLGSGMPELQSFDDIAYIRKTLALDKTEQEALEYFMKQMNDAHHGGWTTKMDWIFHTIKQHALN

SMILES	IC50
Cc1ccc([N+](=O)[O-])cc1S(=O)(=O)N(C)N=Cc1cn(C)c2ccccc12	> 20000 nM

The compounds below were run against EGFR (mouse) (UniProt P00533) (assay: not given). Settings: mk.

SMILES	IC50
COc1cc(O)c2c(=O)c(-c3cccc(Cl)c3)cn(CCc3ccccc3)c2c1	4930 nM
COc1cc(O)c2c(=O)c(-c3cccc(Cl)c3)c[nH]c2c1	11400 nM
COc1cc(O)c2c(=O)c(-c3cccc(Cl)c3)cn(C)c2c1	2830 nM
COc1cc(O)c2c(=O)c(-c3cccc(Cl)c3)coc2c1	45200 nM

Each compound was assayed against EGFR (Balb/c mice) (UniProt P00533) (assay: not given). Settings: not given.

SMILES	LD50
COc1cc2ncnc(Nc3cccc(C#N)c3)c2cc1OC	> 153 mg/kg
Cc1ccc2ncnc(Nc3cccc(C(F)(F)F)c3)c2c1	> 400 mg/kg

Same assay, conditions: dose or concentration not given here

SMILES	toxicity
COc1cc2ncnc(Nc3cccc(C(F)(F)F)c3)c2cc1OC	40%

Each compound was assayed against ROCK2 (human) (UniProt O75116) (assay: Assessment of ROCK2 Kinase Activity (ProQinase Setup)). Settings: not given.

SMILES	IC50
NCc1ccc(C(=O)Nc2ccncc2F)cc1-c1cccc(CC(=O)OCC2CCCC2)c1	100 to 1000 nM
COCCCOC(=O)c1cccc(-c2cc(C(=O)Nc3ccncc3)ccc2CN)c1	100 to 1000 nM
NCc1ccc(C(=O)Nc2ccncc2F)cc1-c1cccc(CC(=O)OC2CC3CCC2C3)c1 (stereo not given)	100 to 1000 nM
NCc1ccc(C(=O)Nc2ccncc2F)cc1-c1cccc(C(=O)OC[C@H]2CCCO2)c1	100 to 1000 nM

The compounds below were run against MAPK14 (human) (UniProt Q16539) (assay: Inhibition of TNF-alpha Production in PBMC Cells). Settings: not given.
MAPK14 (human), sequence (Q16539 whole entry, looked up): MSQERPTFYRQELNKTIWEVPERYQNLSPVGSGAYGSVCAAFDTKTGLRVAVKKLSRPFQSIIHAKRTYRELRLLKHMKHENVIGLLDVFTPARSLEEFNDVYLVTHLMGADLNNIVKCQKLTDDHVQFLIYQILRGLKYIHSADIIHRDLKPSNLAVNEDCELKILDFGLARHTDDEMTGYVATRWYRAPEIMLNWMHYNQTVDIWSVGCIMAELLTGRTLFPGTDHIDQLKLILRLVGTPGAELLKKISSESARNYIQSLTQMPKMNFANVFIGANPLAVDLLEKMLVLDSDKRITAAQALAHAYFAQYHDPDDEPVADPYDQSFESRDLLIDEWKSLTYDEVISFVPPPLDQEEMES

SMILES	IC50
COc1cc2c(Nc3cc(NC(=O)c4cccc(N(C)C)c4)ccc3C)ncnc2cc1OCCCN1CCOCC1	2000 nM
CCC(=O)Nc1cc(Nc2ncnc3cc(OC)c(OC)cc23)ccc1F	3200 nM
COc1cc2ncnc(Nc3ccc(C)c(NC(=O)c4ccccc4)c3)c2cc1OC	3600 nM
COc1cc2c(Nc3cc(NC(=O)c4cccc(N(C)C)c4)ccc3C)ncnc2c(OC)c1OC	5200 nM

Target: EGFR (murine) (UniProt P00533)
Assay: not given
Settings: nih3t3
Remark: another data set of the same source

SMILES	IC50
Cc1noc(C)c1C(=O)Nc1ccc(C(F)(F)F)cc1	> 100000 nM
Cc1n[nH]cc1C(=O)Nc1ccc(C(F)(F)F)cc1	> 100000 nM
Cc1nocc1C(=O)Nc1ccc(C(F)(F)F)cc1	> 100000 nM
Cc1oncc1C(=O)Nc1ccc(C(F)(F)F)cc1	> 100000 nM

Target: EGFR (UniProt P00533)
Assay: not given
Settings: not given
Remark: another data set of the same source

SMILES	IC50
NC(=O)c1cc2ccc(O)c(O)c2cn1	> 100000 nM
Cc1cccc(N(C)c2ncnc3[nH]ncc23)c1	> 50000 nM
Cc1oncc1C(=O)Nc1ccc(C(F)(F)F)cc1	30000 nM

Target: EGFR (UniProt P00533)
Assay: not given
Settings: not given
Remark: another data set of the same source

SMILES	IC50
Nc1ccc(-c2cc3c(N4CCCc5ccccc54)ncnc3[nH]2)cc1	26 nM
Nc1ccc(-c2cc3c(N4CCc5ccccc54)ncnc3[nH]2)cc1	210 nM
Cc1[nH]c2ncnc(N3CCc4ccccc43)c2c1C	1560 nM
Cc1[nH]c2ncnc(N3CCCc4ccccc43)c2c1C	2690 nM

Target: EGFR (UniProt P00533)
Assay: not given
Settings: not given
Remark: another data set of the same source

SMILES	IC50
COc1cc2ncnc(Nc3ccc4[nH]ccc4c3)c2cc1OC	3 nM
c1ccc2c(Nc3ccc4[nH]ccc4c3)ncnc2c1	300 nM
COc1cc2ncnc(Nc3ccc4c(ccn4Cc4ccccc4)c3)c2cc1OC	10000 nM

Same assay, conditions: concentration not given here

SMILES	inhibition
c1ccc(Cn2ccc3cc(Nc4ncnc5ccccc45)ccc32)cc1	74%

These compounds were tested against ROCK2 (human) (UniProt O75116) (assay: Assessment of ROCK2 Kinase Activity (Fluorescence Polarization Assay)). Settings: not given.

SMILES	IC50
CCCOC(=O)c1cc(-c2cc(C(=O)Nc3ccncc3)ccc2C(C)N)c[nH]1 (stereo not given)	< 100 nM
Cc1ccc(S(=O)(=O)CCOC(=O)c2cccc(-c3cc(C(=O)Nc4ccncc4)ccc3C(C)N)c2)cc1 (stereo not given)	100 to 1000 nM
CC(N)c1ccc(C(=O)Nc2ccncc2)cc1-c1cccc(C(=O)OCc2ccncc2)c1 (stereo not given)	< 100 nM
COC(=O)c1cc2c(-c3cc(C(=O)Nc4ccncc4)ccc3C(C)N)cccc2[nH]1 (stereo not given)	100 to 1000 nM

What follows are compounds tested against PIK3CA (human) (UniProt P42336) (assay: Assessment of PI3K Dependent Phosphorylation of p-AKT(T308) in PC3 Cells). Settings: pc-3.

SMILES	IC50
CCOc1cnc(-c2ccc(NC(=O)Nc3ccc(NS(C)(=O)=O)cc3)cc2)nc1N1CCOCC1	< 10 nM
CSc1c(-c2ccncc2)nc(-c2ccc(NC(=O)Nc3ccc(N4CCOCC4=O)cc3)cc2)nc1N1CCOCC1	291 nM
CSc1c(-c2ccncc2)nc(-c2ccc(NC(=O)Nc3ccc(C(N)=O)cc3)cc2)nc1N1CCOCC1	< 10 nM
CSc1cnc(-c2ccc(NC(=O)Nc3ccc(N4CCOCC4=O)cc3)cc2)nc1N1CCOCC1	141 nM

These compounds were tested against EGFR (human) (UniProt P00533) (assay: not given). Settings: a431.
EGFR (human), sequence (P00533 whole entry, looked up): as the sequence (P00533 whole entry, looked up) above

SMILES	Ki
N#CC(C#N)=Cc1cc(O)cc(O)c1	10000 nM
N#C/C(=C\c1ccc(O)c(O)c1)C(=O)O	23600 nM

Target: EGFR (UniProt P00533)
Assay: not given
Settings: not given
Remark: another data set of the same source

SMILES	IC50
CN(C)c1ccc2ncnc(Nc3cccc(Br)c3)c2c1	84 nM

These compounds were tested against CDK2 (human) (UniProt P24941) (assay: Enzyme Assay). Settings: not given.

SMILES	IC50
CC[C@@H](CO)Nc1cc(NCc2ccc(-c3ccccn3)cc2)c2ncn(C(C)C)c2n1	150 nM
CC[C@H](CO)Nc1cc(NCc2ccc(-c3ccccn3)cc2)c2ncn(C(C)C)c2n1	360 nM
CC[C@@H](CO)Nc1cc(NCc2ccccc2)c2ncn(C(C)C)c2n1	420 nM
CC[C@H](CO)Nc1cc(NCc2ccccc2)c2ncn(C(C)C)c2n1	300 nM

What follows are compounds tested against MAPK14 (UniProt Q16539) (assay: p38-alpha Inhibition). Settings: not given.
MAPK14, sequence (Q16539 whole entry, looked up): as the sequence (Q16539 whole entry, looked up) above

SMILES	IC50
ON1=CC=C(C=C1)c2[nH]c3cccnc3c2c4ccc(F)cc4	2500 nM
ON1=CC=Cc2[nH]c(c3ccncc3)c(c4ccc(F)cc4)c12	6700 nM
COn1c(-c2ccncc2)c(-c2ccc(F)cc2)c2ncccc21	68 nM
CCOCn1c(-c2ccncc2)c(-c2ccc(F)cc2)c2ncccc21	21 nM

The compounds below were run against EGFR (human) (UniProt P00533) (assay: not given). Settings: A431.

SMILES	IC50
C[C@@H](Nc1ncnc2ccccc12)c1ccccc1	86 nM
C[C@@H](Nc1nc[nH]c2nc(-c3ccccc3)cc1-2)c1ccccc1	10 to 50 nM
C[C@H](Nc1ncnc2ccccc12)c1ccccc1	> 10000 nM
C[C@H](Nc1[nH]cnc2c3ccccc3nc1-2)c1ccccc1	> 100000 nM

Target: EGFR (UniProt P00533)
Assay: not given
Settings: not given
Remark: another data set of the same source

SMILES	IC50
CN(C)c1ccc(C=C2C(=O)Nc3ccccc32)c2ccccc12	3200 to 32000 nM
O=C1Nc2ccccc2C1=Cc1ccc(O)cc1O	< 3900 nM
COc1ccc(C=C2C(=O)Nc3ccccc32)cc1F	3700 to 37000 nM

Target: EGFR (UniProt P00533)
Assay: not given
Settings: not given
Remark: another data set of the same source

SMILES	IC50
c1ccc(CNc2ncnc3ncccc23)cc1	> 10000 nM
Nc1cc2ncnc(NCc3ccccc3)c2cn1	578 nM
CNc1ccc2ncnc(Nc3cccc(Br)c3)c2c1	7 nM
CN(C)c1ccc2ncnc(Nc3cccc(Br)c3)c2c1	120 nM

Target: EGFR (human) (UniProt P00533)
Assay: not given
Settings: a431
Remark: another data set of the same source

SMILES	EC50
CCOc1cc2ncc(C#N)c(Nc3ccc(OCc4ccccn4)c(Cl)c3)c2cc1NC(=O)C=C1CCNCC1	160 nM
COCCOc1cc2ncnc(Nc3ccc4[nH]ccc4c3)c2cc1NC(=O)C=C1CCNCC1	13 nM
O=C(C=C1CCNCC1)Nc1ccc2ncnc(Nc3ccc4[nH]ccc4c3)c2c1	300 nM
O=C(C=C1CCNC1)Nc1ccc2ncnc(Nc3cccc(Br)c3)c2c1	13000 nM

What follows are compounds tested against PIK3CA (human) (UniProt P42336) (assay: Assessment of PIK3CA Kinase Activity in NZB5 Cells). Settings: not given.

SMILES	IC50
Cc1ccc([N+](=O)[O-])cc1S(=O)(=O)N(C)N=Cc1cnn2cc(Br)ccc12	> 20000 nM
Cc1ccc([N+](=O)[O-])cc1S(=O)(=O)N(C)N=Cc1cnn2cccc(Br)c12	> 20000 nM

What follows are compounds tested against EGFR (human) (UniProt P00533) (assay: not given). Settings: kb.

SMILES	IC50
COC(=O)N1CCC(Oc2cc3c(Nc4cccc(Cl)c4F)ncnc3cc2OC)CC1	35 nM
COc1cc2ncnc(Nc3ccc(F)c(Cl)c3F)c2cc1OC1CCN(C(=O)OCCN2CCCC2)CC1	15 nM
COc1cc2ncnc(Nc3cccc(Cl)c3F)c2cc1OC1CCN(C(=O)OCCN2CCCC2)CC1	9 nM

What follows are compounds tested against MAPK14 (UniProt Q16539) (assay: Assessment of MAPK14 Kinase Activity). Settings: not given.

SMILES	IC50
O[C@H]1CC[C@H](Nc2ncc3c(n2)N2CCN=C2N(c2ccccc2Cl)C3)CC1	6620 nM
CS(=O)(=O)N1CCC(Nc2ncc3c(n2)N2CCN=C2C(c2ccccc2Cl)=C3)CC1	2.7 nM
CC(C)(CO)Nc1ncc2cc(-c3ccccc3Cl)c3nccn3c2n1	18.8 nM
CC(C)Nc1ncc2cc(-c3ccccc3Cl)c3nccn3c2n1	1.4 nM

Each compound was assayed against EGFR (human) (UniProt P00533) (assay: not given). Settings: not given.

SMILES	IC50
O=C(O)C1=Cc2c(Cl)ncnc2NCC1	36 nM
O=C1C(CO)=C(CO)C(=O)c2c(O)ccc(O)c21	15000 nM
CC(C)(C)NC(=O)c1cccc(Oc2ccc(Nc3ncnc4ccn(CCO)c34)cc2Cl)c1	2.3 nM
O=C1C2=C(C(=O)c3c(O)ccc(O)c31)[C@@H](O)[C@@H](O)[C@@H](O)C2	13000 nM

Target: EGFR (human) (UniProt P00533)
Assay: not given
Settings: not given
Remark: another data set of the same source

SMILES	IC50
COC(=O)CCc1c(SSc2c(CCC(=O)OC)c3ccccc3n2C)n(C)c2ccccc12	> 100000 nM
Cn1c(SSc2c(C(=O)Nc3ccccc3)c3cc(C(F)(F)F)ccc3n2C)c(C(=O)Nc2ccccc2)c2cc(C(F)(F)F)ccc21	> 100000 nM
Cn1c(SSc2c(C(=O)Nc3cccnn3)c3ccccc3n2C)c(C(=O)Nc2cccnc2)c2ccccc21	> 100000 nM
CN(C)CCCn1c(SSc2c(C(=O)Nc3ccccc3)c3ccccc3n2CCCN(C)C)c(C(=O)Nc2ccccc2)c2ccccc21	26000 nM

Target: CDK2 (human) (UniProt P24941)
Assay: Enzyme Assay
Settings: not given
Remark: another data set of the same source

SMILES	IC50
CC[C@@H](CO)Nc1cc(NCc2ccc(-c3ccccn3)cc2)c2ncn(C(C)C)c2n1	100 nM
CC[C@H](CO)Nc1cc(NCc2ccc(-c3ccccn3)cc2)c2ncn(C(C)C)c2n1	250 nM
CC[C@@H](CO)Nc1cc(NCc2ccccc2)c2ncn(C(C)C)c2n1	310 nM
CC[C@H](CO)Nc1cc(NCc2ccccc2)c2ncn(C(C)C)c2n1	180 nM

The compounds below were run against MAPK14 (UniProt Q16539) (assay: p38 Kinase Inhibition). Settings: not given.

SMILES	IC50
COc1cc2ncnc(N3CCN(C(=S)NCc4ccccc4)CC3)c2cc1OC	> 30000 nM
COc1cc2ncnc(N3CCN(C(=S)NCc4ccc5c(c4)OCO5)CC3)c2cc1OC	> 30000 nM
C[C@]1(C(=O)N2CCOCC2)CO[C@H](c2nc(-c3ccc(F)cc3)c(-c3ccnc(NCc4ccccn4)n3)[nH]2)OC1	11 nM

Target: EGFR (human) (UniProt P00533)
Assay: not given
Settings: a431
Remark: another data set of the same source

SMILES	IC50
COc1ccc(OC)c(Cc2cc3c(NC4C=C(Br)C=CC4)nc(N)nc3[nH]2)c1 (stereo not given)	> 50000 nM
